From the NIST ThermoML archive (doi:10.1021/je049807n)

Key:
[1] = for surface tension liquid-gas: Pendant drop shape; for mass density: 101.33 kPa, Liquid
[2] = xn = mol fraction of the nth substance listed; conditions: 298.15 K; for surface tension liquid-gas: Pendant drop shape; for mass density: 101.3 kPa, Liquid

Cc1ccc(C)c(C)c1 [1,2,4-trimethylbenzene]
[1], 298.15 K
Conditions	mass density [kg/m3]	surface tension liquid-gas [mN/m]
–	871.64	29.25

Cc1ccc(C)c(C)c1 [1,2,4-trimethylbenzene] + CC(C)(C)O
[2]
Conditions	mass density [kg/m3]	surface tension liquid-gas [mN/m]
x2 = 0.0498	867.42	–
x2 = 0.1	863.45	28.12
x2 = 0.1496	859.56	–
x2 = 0.2007	855.56	27
x2 = 0.2495	851.7	–
x2 = 0.3001	847.58	25.92
x2 = 0.351	843.33	–
x2 = 0.4002	839.16	24.93
x2 = 0.4496	834.81	–
x2 = 0.5005	830.25	24.06
x2 = 0.5494	825.78	–
x2 = 0.6006	821.1	23.23
x2 = 0.6502	816.48	–
x2 = 0.6991	811.94	22.46
x2 = 0.7491	807.12	–
x2 = 0.7993	802.21	21.7
x2 = 0.85	797.46	–
x2 = 0.9003	791.86	20.96
x2 = 0.9499	786.65	–

Cc1ccc(C)c(C)c1 [1,2,4-trimethylbenzene] + CC(C)CO
[2]
Conditions	mass density [kg/m3]	surface tension liquid-gas [mN/m]
x2 = 0.0509	868.47	–
x2 = 0.1004	865.43	28.42
x2 = 0.153	862.28	–
x2 = 0.2018	859.33	27.54
x2 = 0.249	856.45	–
x2 = 0.3002	853.23	26.7
x2 = 0.3487	850.09	–
x2 = 0.3996	846.71	25.95
x2 = 0.4494	843.33	–
x2 = 0.4995	839.86	25.29
x2 = 0.5488	836.34	–
x2 = 0.6002	832.59	24.72
x2 = 0.6508	828.75	–
x2 = 0.6989	824.99	24.16
x2 = 0.7484	820.99	–
x2 = 0.8002	816.62	23.6
x2 = 0.8506	812.2	–
x2 = 0.8984	807.85	22.98
x2 = 0.9496	802.94	–

Cc1ccc(C)c(C)c1 [1,2,4-trimethylbenzene] + CCC(C)O
[2]
Conditions	mass density [kg/m3]	surface tension liquid-gas [mN/m]
x2 = 0.0497	868.48	–
x2 = 0.1008	865.35	28.58
x2 = 0.1486	862.53	–
x2 = 0.201	859.43	27.94
x2 = 0.2507	856.46	–
x2 = 0.2985	853.6	27.32
x2 = 0.3492	850.47	–
x2 = 0.4008	847.25	26.71
x2 = 0.4506	844.12	–
x2 = 0.4997	840.93	26.15
x2 = 0.5486	837.68	–
x2 = 0.6008	834.12	25.59
x2 = 0.6505	830.64	–
x2 = 0.6994	827.12	25.07
x2 = 0.7503	823.25	–
x2 = 0.7999	819.39	24.56
x2 = 0.8496	815.42	–
x2 = 0.9002	811.21	24.02
x2 = 0.9489	806.96	–

Cc1ccc(C)c(C)c1 [1,2,4-trimethylbenzene] + CCCCO
[2]
Conditions	mass density [kg/m3]	surface tension liquid-gas [mN/m]
x2 = 0.0499	869.1	–
x2 = 0.1013	866.38	28.81
x2 = 0.1492	863.89	–
x2 = 0.2002	861.22	28.42
x2 = 0.2499	858.58	–
x2 = 0.2992	855.92	28.04
x2 = 0.3503	853.09	–
x2 = 0.4009	850.22	27.61
x2 = 0.4491	847.4	–
x2 = 0.5012	844.25	27.15
x2 = 0.5498	841.19	–
x2 = 0.5985	838.02	26.65
x2 = 0.6501	834.53	–
x2 = 0.6987	831.1	26.08
x2 = 0.7499	827.34	–
x2 = 0.8001	823.46	25.49
x2 = 0.8501	819.4	–
x2 = 0.9002	815.1	24.86
x2 = 0.9503	810.56	–

Cc1cc(C)cc(C)c1 [1,3,5-trimethylbenzene]
[1], 298.15 K
Conditions	mass density [kg/m3]	surface tension liquid-gas [mN/m]
–	861.03	28.09

Cc1cc(C)cc(C)c1 [1,3,5-trimethylbenzene] + CC(C)(C)O
[2]
Conditions	mass density [kg/m3]	surface tension liquid-gas [mN/m]
x2 = 0.0502	857.2	–
x2 = 0.1015	853.43	27.18
x2 = 0.1482	850.08	–
x2 = 0.2007	846.28	26.24
x2 = 0.2509	842.63	–
x2 = 0.2995	839.02	25.35
x2 = 0.3484	835.31	–
x2 = 0.3995	831.37	24.51
x2 = 0.449	827.48	–
x2 = 0.4992	823.4	23.75
x2 = 0.5483	819.43	–
x2 = 0.6005	815.1	23.02
x2 = 0.6502	810.91	–
x2 = 0.6987	806.81	22.32
x2 = 0.75	802.48	–
x2 = 0.7995	798.32	21.61
x2 = 0.8501	793.99	–
x2 = 0.9002	789.58	20.86
x2 = 0.9509	785.25	–

Cc1cc(C)cc(C)c1 [1,3,5-trimethylbenzene] + CC(C)CO
[2]
Conditions	mass density [kg/m3]	surface tension liquid-gas [mN/m]
x2 = 0.0512	858.13	–
x2 = 0.1028	855.39	27.65
x2 = 0.1517	852.81	–
x2 = 0.1994	850.26	27.21
x2 = 0.2514	847.49	–
x2 = 0.3006	844.78	26.67
x2 = 0.3529	841.86	–
x2 = 0.4019	839.03	26.09
x2 = 0.4494	836.25	–
x2 = 0.4995	833.24	25.51
x2 = 0.548	830.3	–
x2 = 0.6002	827.02	24.88
x2 = 0.6495	823.78	–
x2 = 0.699	820.47	24.25
x2 = 0.7501	816.96	–
x2 = 0.7998	813.38	23.61
x2 = 0.8504	809.65	–
x2 = 0.9006	805.81	22.97
x2 = 0.9485	802.06	–

Cc1cc(C)cc(C)c1 [1,3,5-trimethylbenzene] + CCC(C)O
[2]
Conditions	mass density [kg/m3]	surface tension liquid-gas [mN/m]
x2 = 0.0508	858.12	–
x2 = 0.101	855.38	27.77
x2 = 0.1511	852.75	–
x2 = 0.2007	850.14	27.36
x2 = 0.25	847.61	–
x2 = 0.2986	845.03	26.94
x2 = 0.3488	842.36	–
x2 = 0.4007	839.55	26.47
x2 = 0.4495	836.88	–
x2 = 0.5017	833.96	25.99
x2 = 0.5484	831.33	–
x2 = 0.6004	828.33	25.49
x2 = 0.6508	825.34	–
x2 = 0.6991	822.4	24.98
x2 = 0.7496	819.25	–
x2 = 0.8009	816.01	24.45
x2 = 0.8504	812.75	–
x2 = 0.9002	809.42	23.94
x2 = 0.9505	805.99	–

Cc1cc(C)cc(C)c1 [1,3,5-trimethylbenzene] + CCCCO
[2]
Conditions	mass density [kg/m3]	surface tension liquid-gas [mN/m]
x2 = 0.0493	858.72	–
x2 = 0.1006	856.4	27.92
x2 = 0.1512	854.14	–
x2 = 0.2011	851.93	27.65
x2 = 0.2514	849.67	–
x2 = 0.3002	847.43	27.33
x2 = 0.3487	845.16	–
x2 = 0.4003	842.68	26.91
x2 = 0.4535	840.04	–
x2 = 0.5001	837.66	26.46
x2 = 0.5484	835.11	–
x2 = 0.6005	832.26	25.99
x2 = 0.65	829.43	–
x2 = 0.6993	826.54	25.53
x2 = 0.7497	823.44	–
x2 = 0.7999	820.23	25.05
x2 = 0.85	816.86	–
x2 = 0.901	813.3	24.58
x2 = 0.9506	809.67	–

CC(C)CO [2-methyl-1-propanol]
[1], 298.15 K
Conditions	mass density [kg/m3]	surface tension liquid-gas [mN/m]
–	797.83	22.3

CC(C)(C)O [2-methylpropan-2-ol]
[1], 298.15 K
Conditions	mass density [kg/m3]	surface tension liquid-gas [mN/m]
–	780.85	20.13

CCCCO [butan-1-ol]
[1], 298.15 K
Conditions	mass density [kg/m3]	surface tension liquid-gas [mN/m]
–	805.8	24.18

CCC(C)O (configuration not stated) [butan-2-ol]
[1]
Conditions	mass density [kg/m3]	surface tension liquid-gas [mN/m]
298.15 K	802.34	23.46
303.15 K	–	22.14
